Test results as given in ChEMBL document CHEMBL5375952, “Discovery of Novel 8-Hydroxyquinoline Derivatives with Potent In Vitro and In Vivo Antifungal Activity” (J Med Chem, 2023).
≈ marks a conversion by molar mass, not a printed value.

Key:
[1] = Antifungal activity against Cryptococcus gattii SCZ20024 assessed as fungal growth inhibition incubated for 48 hrs by broth microdilution method; format: functional, Cryptococcus gattii VGI
Candida albicans [2] = assay: Antifungal activity against Candida albicans 337 assessed as fungal growth inhibition incubated for 48 hrs by broth microdilution method; format: functional
Nakaseomyces glabratus [3] = assay: Antifungal activity against Candida glabrata 201 assessed as fungal growth inhibition incubated for 48 hrs by broth microdilution method; format: functional
Cryptococcus neoformans [4] = assay: Antifungal activity against Cryptococcus neoformans SH68 assessed as fungal growth inhibition incubated for 48 hrs by broth microdilution method; format: functional
Cryptococcus neoformans [5] = assay: Antifungal activity against Cryptococcus neoformans HN1 assessed as fungal growth inhibition incubated for 48 hrs by broth microdilution method; format: functional
Pichia kudriavzevii [6] = assay: Antifungal activity against Candida krusei 477 assessed as fungal growth inhibition incubated for 48 hrs by broth microdilution method; format: functional
[Candida] auris [7] = Antifungal activity against Candida auris 888 assessed as fungal growth inhibition incubated for 48 hrs by broth microdilution method; format: functional; conditions: Candidozyma auris
Nakaseomyces glabratus [8] = assay: Antifungal activity against Candida glabrata 205 assessed as fungal growth inhibition incubated for 48 hrs by broth microdilution method; format: functional
Candida parapsilosis [9] = assay: Antifungal activity against Candida parapsilosis ATCC22019 assessed as fungal growth inhibition incubated for 48 hrs by broth microdilution method; format: functional; conditions: Lodderomyces parapsilosis
[Candida] auris [10] = Antifungal activity against Candida auris 887 assessed as fungal growth inhibition incubated for 48 hrs by broth microdilution method; format: functional; conditions: Candidozyma auris
Candida parapsilosis [11] = assay: Antifungal activity against Candida parapsilosis 104 assessed as fungal growth inhibition incubated for 48 hrs by broth microdilution method; format: functional; conditions: Lodderomyces parapsilosis
[12] = Cytotoxicity against human Caco-2 cells assessed as cell growth inhibition incubated for 24 hrs by CCK8 assay; format: toxicity, cell-based
Candida tropicalis [13] = assay: Antifungal activity against Candida tropicalis 172 assessed as fungal growth inhibition incubated for 48 hrs by broth microdilution method; format: functional
Cryptococcus neoformans [14] = assay: Antifungal activity against Cryptococcus neoformans HN20 assessed as fungal growth inhibition incubated for 48 hrs by broth microdilution method; format: functional
[Candida] auris [15] = Antifungal activity against Candida auris 278 assessed as fungal growth inhibition incubated for 48 hrs by broth microdilution method; format: functional; conditions: Candidozyma auris
Nakaseomyces glabratus [16] = assay: Antifungal activity against Candida glabrata 202 assessed as fungal growth inhibition incubated for 48 hrs by broth microdilution method; format: functional
[17] = Antifungal activity against Cryptococcus gattii WM178 assessed as fungal growth inhibition incubated for 48 hrs by broth microdilution method; format: functional, Cryptococcus gattii VGI
Aspergillus fumigatus [18] = assay: Antifungal activity against Aspergillus fumigatus 7544 assessed as fungal growth inhibition incubated for 48 hrs by broth microdilution method; format: functional
Cryptococcus neoformans [19] = assay: Antifungal activity against Cryptococcus neoformans HN2 assessed as fungal growth inhibition incubated for 48 hrs by broth microdilution method; format: functional
[20] = Antifungal activity against Cryptococcus gattii E566 assessed as fungal growth inhibition incubated for 48 hrs by broth microdilution method; format: functional, Cryptococcus gattii VGI
Cryptococcus neoformans [21] = assay: Antifungal activity against Cryptococcus neoformans HN2-40 assessed as fungal growth inhibition incubated for 48 hrs by broth microdilution method; format: functional
Nakaseomyces glabratus [22] = assay: Antifungal activity against Candida glabrata 222 assessed as fungal growth inhibition incubated for 48 hrs by broth microdilution method; format: functional
Aspergillus fumigatus [23] = assay: Antifungal activity against Aspergillus fumigatus 023-12 assessed as fungal growth inhibition incubated for 48 hrs by broth microdilution method; format: functional
Cryptococcus neoformans [24] = assay: Antifungal activity against Cryptococcus neoformans 443 assessed as fungal growth inhibition incubated for 48 hrs by broth microdilution method; format: functional
Pichia kudriavzevii [25] = assay: Antifungal activity against Candida krusei 69 assessed as fungal growth inhibition incubated for 48 hrs by broth microdilution method; format: functional
Candida parapsilosis [26] = assay: Antifungal activity against Candida parapsilosis 107 assessed as fungal growth inhibition incubated for 48 hrs by broth microdilution method; format: functional; conditions: Lodderomyces parapsilosis
Candida parapsilosis [27] = assay: Antifungal activity against Candida parapsilosis 125 assessed as fungal growth inhibition incubated for 48 hrs by broth microdilution method; format: functional; conditions: Lodderomyces parapsilosis
Cryptococcus neoformans [28] = assay: Antifungal activity against Cryptococcus neoformans H99 assessed as fungal growth inhibition incubated for 48 hrs by broth microdilution method; format: functional
Candida albicans [29] = assay: Antifungal activity against Candida albicans 25 assessed as fungal growth inhibition incubated for 48 hrs by broth microdilution method; format: functional
Nakaseomyces glabratus [30] = assay: Antifungal activity against Candida glabrata 204 assessed as fungal growth inhibition incubated for 48 hrs by broth microdilution method; format: functional
Pichia kudriavzevii [31] = assay: Antifungal activity against Candida krusei 472 assessed as fungal growth inhibition incubated for 48 hrs by broth microdilution method; format: functional
Aspergillus fumigatus [32] = assay: Antifungal activity against Aspergillus fumigatus A assessed as fungal growth inhibition incubated for 48 hrs by broth microdilution method; format: functional
Candida tropicalis [33] = assay: Antifungal activity against Candida tropicalis 176 assessed as fungal growth inhibition incubated for 48 hrs by broth microdilution method; format: functional
Cryptococcus neoformans [34] = assay: Antifungal activity against Cryptococcus neoformans 445 assessed as fungal growth inhibition incubated for 48 hrs by broth microdilution method; format: functional
[35] = Antifungal activity against Cryptococcus gattii SCZ20031 assessed as fungal growth inhibition incubated for 48 hrs by broth microdilution method; format: functional, Cryptococcus gattii VGI
Pichia kudriavzevii [36] = assay: Antifungal activity against Candida krusei 68 assessed as fungal growth inhibition incubated for 48 hrs by broth microdilution method; format: functional
[Candida] auris [37] = Antifungal activity against Candida auris 277 assessed as fungal growth inhibition incubated for 48 hrs by broth microdilution method; format: functional; conditions: Candidozyma auris
Candida albicans [38] = assay: Antifungal activity against Candida albicans 22 assessed as fungal growth inhibition incubated for 48 hrs by broth microdilution method; format: functional
[Candida] auris [39] = Antifungal activity against Candida auris 276 assessed as fungal growth inhibition incubated for 48 hrs by broth microdilution method; format: functional; conditions: Candidozyma auris
Candida albicans [40] = assay: Antifungal activity against Candida albicans 338 assessed as fungal growth inhibition incubated for 48 hrs by broth microdilution method; format: functional
[41] = Antifungal activity against Cryptococcus gattii WM179 assessed as fungal growth inhibition incubated for 48 hrs by broth microdilution method; format: functional, Cryptococcus gattii VGI
Pichia kudriavzevii [42] = assay: Antifungal activity against Candida krusei 471 assessed as fungal growth inhibition incubated for 48 hrs by broth microdilution method; format: functional
Cryptococcus neoformans [43] = assay: Antifungal activity against Cryptococcus neoformans HN17 assessed as fungal growth inhibition incubated for 48 hrs by broth microdilution method; format: functional
Candida tropicalis [44] = assay: Antifungal activity against Candida tropicalis 178 assessed as fungal growth inhibition incubated for 48 hrs by broth microdilution method; format: functional
Cryptococcus neoformans [45] = assay: Antifungal activity against Cryptococcus neoformans 56992 assessed as fungal growth inhibition incubated for 48 hrs by broth microdilution method; format: functional
Candida tropicalis [46] = assay: Antifungal activity against Candida tropicalis 184 assessed as fungal growth inhibition incubated for 48 hrs by broth microdilution method; format: functional
Pichia kudriavzevii [47] = assay: Antifungal activity against Candida krusei 474 assessed as fungal growth inhibition incubated for 48 hrs by broth microdilution method; format: functional
Candida albicans [48] = assay: Antifungal activity against Candida albicans 21 assessed as fungal growth inhibition incubated for 48 hrs by broth microdilution method; format: functional
Candida tropicalis [49] = assay: Antifungal activity against Candida tropicalis 177 assessed as fungal growth inhibition incubated for 48 hrs by broth microdilution method; format: functional
Cryptococcus neoformans [50] = assay: Antifungal activity against Cryptococcus neoformans 444 assessed as fungal growth inhibition incubated for 48 hrs by broth microdilution method; format: functional
Candida tropicalis [51] = assay: Antifungal activity against Candida tropicalis 182 assessed as fungal growth inhibition incubated for 48 hrs by broth microdilution method; format: functional
Cryptococcus neoformans [52] = assay: Antifungal activity against Cryptococcus neoformans HN19 assessed as fungal growth inhibition incubated for 48 hrs by broth microdilution method; format: functional
[Candida] auris [53] = Antifungal activity against Candida auris CBS 12372 assessed as fungal growth inhibition incubated for 48 hrs by broth microdilution method; format: functional; conditions: Candidozyma auris

SMILES: Oc1c(I)cc(Cl)c2cccnc12 [CLIOQUINOL]
- MIC [1]: 0.031 µg/mL (≈ 0.101 µM)
- MIC (Candida albicans [2]): 0.125 µg/mL (≈ 0.409 µM)
- MIC (Nakaseomyces glabratus [3]): 0.125 µg/mL (≈ 0.409 µM)
- MIC (Cryptococcus neoformans [4]): 0.125 µg/mL (≈ 0.409 µM)
- MIC (Cryptococcus neoformans [5]): 0.125 µg/mL (≈ 0.409 µM)
- MIC (Pichia kudriavzevii [6]): 0.25 µg/mL (≈ 0.818 µM)
- MIC ([Candida] auris [7]): 0.25 µg/mL (≈ 0.818 µM)
- MIC (Nakaseomyces glabratus [8]): 0.25 µg/mL (≈ 0.818 µM)
- MIC (Candida parapsilosis [9]): 0.5 µg/mL (≈ 1.64 µM)
- MIC ([Candida] auris [10]): 0.5 µg/mL (≈ 1.64 µM)
- MIC (Candida parapsilosis [11]): 0.125 µg/mL (≈ 0.409 µM)
- IC50 at 24 h [12]: 19.3 µg/mL (≈ 63.1 µM)
- MIC (Candida tropicalis [13]): 0.125 µg/mL (≈ 0.409 µM)
- MIC (Cryptococcus neoformans [14]): 0.063 µg/mL (≈ 0.206 µM)
- MIC ([Candida] auris [15]): 0.125 µg/mL (≈ 0.409 µM)
- MIC (Nakaseomyces glabratus [16]): 0.125 µg/mL (≈ 0.409 µM)
- MIC [17]: 0.031 µg/mL (≈ 0.101 µM)
- MIC (Aspergillus fumigatus [18]): 0.25 µg/mL (≈ 0.818 µM)
- MIC (Cryptococcus neoformans [19]): 0.125 µg/mL (≈ 0.409 µM)
- MIC [20]: 0.031 µg/mL (≈ 0.101 µM)
- MIC (Cryptococcus neoformans [21]): 0.063 µg/mL (≈ 0.206 µM)
- MIC (Nakaseomyces glabratus [22]): 0.25 µg/mL (≈ 0.818 µM)
- MIC (Aspergillus fumigatus [23]): 0.25 µg/mL (≈ 0.818 µM)
- MIC (Cryptococcus neoformans [24]): 0.125 µg/mL (≈ 0.409 µM)
- MIC (Pichia kudriavzevii [25]): 0.125 µg/mL (≈ 0.409 µM)
- MIC (Candida parapsilosis [26]): 0.5 µg/mL (≈ 1.64 µM)
- MIC (Candida parapsilosis [27]): 0.25 µg/mL (≈ 0.818 µM)
- MIC (Cryptococcus neoformans [28]): 0.125 µg/mL (≈ 0.409 µM)
- MIC (Candida albicans [29]): 0.125 µg/mL (≈ 0.409 µM)
- MIC (Nakaseomyces glabratus [30]): 0.125 µg/mL (≈ 0.409 µM)
- MIC (Pichia kudriavzevii [31]): 0.125 µg/mL (≈ 0.409 µM)
- MIC (Aspergillus fumigatus [32]): 0.25 µg/mL (≈ 0.818 µM)
- MIC (Candida tropicalis [33]): 0.032 µg/mL (≈ 0.105 µM)
- MIC (Cryptococcus neoformans [34]): 0.063 µg/mL (≈ 0.206 µM)
- MIC [35]: 0.031 µg/mL (≈ 0.101 µM)
- MIC (Pichia kudriavzevii [36]): 0.25 µg/mL (≈ 0.818 µM)
- MIC ([Candida] auris [37]): 0.063 µg/mL (≈ 0.206 µM)
- MIC (Candida albicans [38]): 0.125 µg/mL (≈ 0.409 µM)
- MIC ([Candida] auris [39]): 0.063 µg/mL (≈ 0.206 µM)
- MIC (Candida albicans [40]): 0.125 µg/mL (≈ 0.409 µM)
- MIC [41]: 0.031 µg/mL (≈ 0.101 µM)
- MIC (Pichia kudriavzevii [42]): 0.25 µg/mL (≈ 0.818 µM)
- MIC (Cryptococcus neoformans [43]): 0.125 µg/mL (≈ 0.409 µM)
- MIC (Candida tropicalis [44]): 0.125 µg/mL (≈ 0.409 µM)
- MIC (Cryptococcus neoformans [45]): 0.063 µg/mL (≈ 0.206 µM)
- MIC (Candida tropicalis [46]): 0.125 µg/mL (≈ 0.409 µM)
- MIC (Pichia kudriavzevii [47]): 0.25 µg/mL (≈ 0.818 µM)
- MIC (Candida albicans [48]): 0.125 µg/mL (≈ 0.409 µM)
- MIC (Candida tropicalis [49]): 0.125 µg/mL (≈ 0.409 µM)
- MIC (Cryptococcus neoformans [50]): 0.125 µg/mL (≈ 0.409 µM)
- MIC (Candida tropicalis [51]): 0.125 µg/mL (≈ 0.409 µM)
- MIC (Cryptococcus neoformans [52]): 0.063 µg/mL (≈ 0.206 µM)
- MIC ([Candida] auris [53]): 0.063 µg/mL (≈ 0.206 µM)
